# Like-named read-outs stand apart in the source and are kept apart here. Marks after values point to notes of the source that are not given here.
# Experiments:
# [1] = In vitro dissociation of the water soluble taxane derivatives in blood plasma of rat; assay type: in vitro ADME, SD rats; conditions: 37° C.
# Method: The obtained water soluble taxane derivatives were formulated as 0.2 mg/ml aqueous solutions. […] After 2 min, 5 min and 10 min of incubation, 0.2 ml of solutions were respectively taken from each of the samples, and added to acetonitrile (0.4 ml) cooled to −20° C. for precipitation of protein.
# [2] = In vitro dissociation of the water soluble taxane derivatives in blood plasma of rabbit; assay type: in vitro ADME, New Zealand white rabbits; conditions: 37° C.
# Method: The obtained water soluble taxane derivatives were formulated as 0.2 mg/ml aqueous solutions. […] After 5 min, 20 min and 60 min of incubation, 0.2 ml of solutions were respectively taken from each of the samples, and added to acetonitrile (0.4 ml) cooled to −20° C. for precipitation of protein.
# [3] = rats, 5 mg/kg intravenous, 5 min after administration
# Method: After 5 min of administration, 0.3 ml of venous blood was taken from the retrobulbar venous plexus of the rats, placed in heparinized tubes, and centrifuged at 11,000 rpm for 5 min. Blood plasma was separated, and the concentrations of the compounds in the blood plasma were determined by liquid chromatography-mass spectrometry.
# KM mice = assay: ED50 and LD50 test concerning anesthesia (sequential method) in mice; assay type: in vivo; conditions: for Mouse ED50 / ED50: anesthesia (loss of righting reflex); for Mouse ED50 / Mouse LD50 / ED50: caudal vein injection; for ED50: Mus musculus
# Method: (§1) Test samples for the experiment on rabbit were formulated to have corresponding concentrations based on the results from a preliminary test. […] Rats and mice were administered with samples having a fixed concentration of drugs, while the volume of administration altered according to actual situation. The volume of administration to rabbits was 1 mL/kg body weight.
# (§2) ED50 and LD50 values concerning anesthesia were determined using a sequential method. Healthy KM mice (male), SD rats (male) and New Zealand White rabbits were used for test. […] For rabbits, the compounds were administered by injection at a constant rate via ear vein for 30 seconds. Before the test, a preliminary test was conducted to determine an approximate dosage (volume of administration) that leads to anesthetization (or death) of animals, which was set as the middle dosage in the formal test. […] The disappearance of righting reflex or death was used as indicators of pharmacological efficacy or toxicity, respectively. The formal test began with the administration of the middle dosage. If animals were anesthetized, a lower dosage was administered; if animals were not anesthetized, a higher dosage was administered, until the cycle was repeated for 3-4 times. LD50 and ED50 were calculated by a sequential method aot425 software. TI was calculated according to the following equation: TI=LD50/ED50.
# SD rats = assay: ED50 and LD50 test concerning anesthesia (sequential method) in rats; assay type: in vivo; conditions: for Rat ED50 / ED50: anesthesia (loss of righting reflex); for Rat ED50 / Rat LD50 / ED50: caudal vein injection; for ED50: Rattus norvegicus
# Method: as §1, §2
# [4] = test system: New Zealand White rabbits; assay: ED50 and LD50 test concerning anesthesia (sequential method) in rabbits; assay type: in vivo; conditions: for TI index: TI=LD50/ED50; for LD50 / ED50: injection via ear vein; for LD50: death; for ED50: disappearance of righting reflex
# Method: as §1, §2
# Kunming mice = assay: Latent period and persistent period of anesthesia in mice; assay type: in vivo
# [5] = rabbit plasma, 37° C.
# Method: 0.1 ml samples were taken from each of the solutions, added respectively to 1 ml of blood plasma of rabbit (taken from New Zealand white rabbits, treated according to conventional methods, anticoagulated with heparin) or 1 ml of blood plasma of rat (taken from live SD rats, treated according to conventional methods, anticoagulated with heparin), homogeneously mixed, and placed in a thermostatic water bath at 37° C. for incubation with time being recorded. Samples were taken at different time points after the experiment began, and 2 ml of acetonitrile was immediately added. The samples were shaken and centrifuged for 5 min (15,000 rpm), and the supernatant was then taken for HPLC analysis.
# [6] = rat plasma, 37° C.
# mice [7] = conditions: cited from earlier work
# mice [8] = conditions: intravenous, equimolar amounts to propofol
# [9] = 3 mg/ml solution, confirmation test
# [10] = 6 mg/ml solution, confirmation test
# [11] = intravenous injection, dosage 2 * ED50, 3 mg/ml solution
# [12] = intravenous injection, dosage 2 * ED50, 6 mg/ml solution
# [13] = formula F derivatives, sampling time 15 s
# [14] = formula F derivatives, sampling time 30 s
# [15] = formula G derivatives, sampling time 15 s
# [16] = dosage 1.25 * ED50 (propofol 15 mg/kg, fospropofol 85 mg/kg)
# [17] = fospropofol 136 mg/kg (2 * ED50)
# [18] = propofol 25 mg/kg (2 * ED50), results from the present lab
smiles,measurement,setting,value
"CC(=O)O[C@H]1C(=O)[C@@]2(C)[C@H]([C@H](OC(=O)c3ccccc3)[C@]3(O)C[C@H](OC(=O)[C@H](OC(=O)[C@H](F)CCN(C)C)[C@@H](NC(=O)c4ccccc4)c4ccccc4)C(C)=C1C3(C)C)[C@]1(OC(C)=O)CO[C@@H]1C[C@@H]2O.Cl [Compound 01, 2′-O-[4-(N,N-dimethyl)amino-2(R)-fluorobutyryl]paclitaxel Hydrochloride]",dissociation percent,[1]; 2 min,63.5%
same,dissociation percent,[1]; 5 min,96.8%
same,dissociation percent,[1]; 10 min,100%
same,dissociation percent,[2]; 5 min,76.5%
same,dissociation percent,[2]; 20 min,98.3%
same,dissociation percent,[2]; 60 min,100%
same,detection of the administered derivative in the blood plasma,[3],cannot be detected
same,mean concentration of paclitaxel in the blood plasma,[3],1789 ng/mL
"CC(=O)O[C@H]1C(=O)[C@@]2(C)[C@H]([C@H](OC(=O)c3ccccc3)[C@]3(O)C[C@H](OC(=O)[C@H](OC(=O)[C@@H](F)CCN(C)C)[C@@H](NC(=O)c4ccccc4)c4ccccc4)C(C)=C1C3(C)C)[C@]1(OC(C)=O)CO[C@@H]1C[C@@H]2O.Cl [Compound 02, 2′-O-[4-(N,N-dimethyl)amino-2(S)-fluorobutyryl]paclitaxel hydrochloride]",dissociation percent,[1]; 2 min,59.8%
same,dissociation percent,[1]; 5 min,95.6%
same,dissociation percent,[1]; 10 min,100%
same,dissociation percent,[2]; 5 min,68.2%
same,dissociation percent,[2]; 20 min,97.5%
same,dissociation percent,[2]; 60 min,100%
same,detection of the administered derivative in the blood plasma,[3],cannot be detected
"CC(=O)O[C@H]1C(=O)[C@@]2(C)[C@H]([C@H](OC(=O)c3ccccc3)[C@]3(O)C[C@H](OC(=O)[C@H](OC(=O)C(F)CCN(C)C)[C@@H](NC(=O)c4ccccc4)c4ccccc4)C(C)=C1C3(C)C)[C@]1(OC(C)=O)CO[C@@H]1C[C@@H]2O.Cl (stereo partly drawn) [Compound 03, 2′-O-[4-(N,N-dimethyl)amino-2(R,S)-fluorobutyryl]paclitaxel Hydrochloride]",dissociation percent,[1]; 2 min,61.8%
same,dissociation percent,[1]; 5 min,93.1%
same,dissociation percent,[1]; 10 min,100%
same,dissociation percent,[2]; 5 min,75.7%
same,dissociation percent,[2]; 20 min,93.5%
same,dissociation percent,[2]; 60 min,100%
same,detection of the administered derivative in the blood plasma,[3],cannot be detected
"CC(C)c1cccc(C(C)C)c1OC(=O)[C@H](F)CCN(C)C.Cl [Compound E2, Propofol 4-(N,N-dimethyl)amino-2(R)-fluorobutyrate Hydrochloride]",TI Mouse,KM mice; [9],3^
same,TI Mouse,"KM mice; 3 mg/ml solution, first test",4*
same,TI Mouse,KM mice; [10],3.7
same,TI Mouse,"KM mice; 6 mg/ml solution, first test",3.6*
same,Mouse ED50,KM mice; [9],15.4 mg/kg
same,Mouse ED50,"KM mice; 3 mg/ml solution, first test",17.9 mg/kg
same,Mouse ED50,KM mice; [10],13.0 mg/kg
same,Mouse ED50,"KM mice; 6 mg/ml solution, first test",15.2 mg/kg
same,Mouse LD50,KM mice; [9],46.9 mg/kg
same,Mouse LD50,"KM mice; 3 mg/ml solution, first test",71.8 mg/kg
same,Mouse LD50,KM mice; [10],48.0 mg/kg
same,Mouse LD50,"KM mice; 6 mg/ml solution, first test",55.1 mg/kg
same,TI Rat,SD rats; 3 mg/ml solution,3.8
same,TI Rat,SD rats; 6 mg/ml solution,3.1
same,Rat ED50,SD rats; 3 mg/ml solution,9.8 mg/kg
same,Rat ED50,SD rats; 6 mg/ml solution,10.1 mg/kg
same,Rat LD50,SD rats; 3 mg/ml solution,37.5 mg/kg
same,Rat LD50,SD rats; 6 mg/ml solution,30.7 mg/kg
same,TI index,[4],3.5
same,LD50,[4],28 (23.0-34.2) mg/kg
same,ED50,[4],8 (5.7-10.5) mg/kg
same,Latent Period,Kunming mice; [11],14.6 ± 0.9 s
same,Persistent period,Kunming mice; [11],383.6 ± 242.1 s
same,Latent Period,Kunming mice; [12],14.2 ± 1.9 s
same,Persistent period,Kunming mice; [12],543 ± 231 s
same,dissociation percent,[5]; 15 s,97.7%
same,dissociation percent,[5]; 30 s,100%
same,dissociation percent,[6]; 5 s,100%
"CC(C)c1cccc(C(C)C)c1OC(=O)C(F)CC(=O)[O-].[Na+] [Compound F7, propofol 3-carboxyl-2(R)-fluorobutyrate sodium salt]",TI Mouse,KM mice; [9],2.6
same,TI Mouse,"KM mice; 3 mg/ml solution, first test",2.8*
same,TI Mouse,KM mice; [10],3.1
same,TI Mouse,"KM mice; 6 mg/ml solution, first test",2.4*
same,Mouse ED50,KM mice; [9],19.2 mg/kg
same,Mouse ED50,"KM mice; 3 mg/ml solution, first test",21.4 mg/kg
same,Mouse ED50,KM mice; [10],18.1 mg/kg
same,Mouse ED50,"KM mice; 6 mg/ml solution, first test",20.7 mg/kg
same,Mouse LD50,KM mice; [9],51.6 mg/kg
same,Mouse LD50,"KM mice; 3 mg/ml solution, first test",59.8 mg/kg
same,Mouse LD50,KM mice; [10],56.6 mg/kg
same,Mouse LD50,"KM mice; 6 mg/ml solution, first test",51.2 mg/kg
same,TI Rat,SD rats; 3 mg/ml solution,3.0
same,TI Rat,SD rats; 6 mg/ml solution,3.5
same,Rat ED50,SD rats; 3 mg/ml solution,15.7 mg/kg
same,Rat ED50,SD rats; 6 mg/ml solution,12.5 mg/kg
same,Rat LD50,SD rats; 3 mg/ml solution,47.4 mg/kg
same,Rat LD50,SD rats; 6 mg/ml solution,44.4 mg/kg
same,TI index,[4],2.6
same,LD50,[4],36.7 (33.8-39.4) mg/kg
same,ED50,[4],13.9 (11.1-16.8) mg/kg
same,Latent Period,Kunming mice; [11],20.2 ± 0.6 s
same,Persistent period,Kunming mice; [11],335.5 ± 218.1 s
same,Latent Period,Kunming mice; [12],16.2 ± 2.2 s
same,Persistent period,Kunming mice; [12],517 ± 231 s
same,Sampling time/dissociation percent (%) 15 s,[5]; [13],46.3%
same,Sampling time/dissociation percent (%) 30 s,[5]; [14],72.8%
same,Sampling time/dissociation percent (%) 5 s,"[6]; formula F derivatives, sampling time 5 s",58.8%
same,Sampling time/dissociation percent (%) 15 s,[6]; [13],71.3%
same,Sampling time/dissociation percent (%) 30 s,[6]; [14],85.4%
"CC(C)c1cccc(C(C)C)c1OC(=O)[C@@H](F)CCOP(=O)([O-])[O-].[Na+].[Na+] [Compound G2, {1-[4-(2,6-diisopropylphenoxy)-4-oxo-3-(S)-3-fluoro-1-butyl]} phosphate monoester disodium salt]",TI Mouse,KM mice; [9],3.0
same,TI Mouse,"KM mice; 3 mg/ml solution, first test",2.8*
same,TI Mouse,KM mice; [10],2.3
same,TI Mouse,"KM mice; 6 mg/ml solution, first test",1.9*
same,Mouse ED50,KM mice; [9],19.8 mg/kg
same,Mouse ED50,"KM mice; 3 mg/ml solution, first test",23.7 mg/kg
same,Mouse ED50,KM mice; [10],22.8 mg/kg
same,Mouse ED50,"KM mice; 6 mg/ml solution, first test",25.6 mg/kg
same,Mouse LD50,KM mice; [9],60.4 mg/kg
same,Mouse LD50,"KM mice; 3 mg/ml solution, first test",65.7 mg/kg
same,Mouse LD50,"KM mice; 6 mg/ml solution, first test",48.7 mg/kg
same,TI Rat,SD rats; 3 mg/ml solution,3.3
same,TI Rat,SD rats; 6 mg/ml solution,2.8
same,Rat ED50,SD rats; 6 mg/ml solution,21.1 mg/kg
same,LD50,[4],38.7 (35.1-41.3) mg/kg
same,ED50,[4],14.7 (12.6-19.1) mg/kg
same,Latent Period,Kunming mice; [11],16.3 ± 0.8 s
same,Persistent period,Kunming mice; [11],383.6 ± 242.1 s
same,Latent Period,Kunming mice; [12],15.7 ± 2.3 s
same,Persistent period,Kunming mice; [12],571 ± 173 s
same,Sampling time/dissociation percent (%) 15 S,[5]; [15],37.2%
same,Sampling time/dissociation percent (%) 30 S,"[5]; formula G derivatives, sampling time 30 s",54.3%
same,Sampling time/dissociation percent (%) 5 S,"[6]; formula G derivatives, sampling time 5 s",48.5%
same,Sampling time/dissociation percent (%) 15 S,[6]; [15],69.7%
CC(C)c1cccc(C(C)C)c1OCOP(=O)(O)O [Fospropofol],Latent Period,mice [7]; [16],105 s
same,Latent Period,mice [7]; [17],81 s
same,Persistent period,mice [7]; [17],804 s
"CC(C)c1cccc(C(C)C)c1OC(=O)CCCN(C)C.Cl [J′-1, reference compound]",latent period for anesthesia compared to propofol,mice [8],much longer than those of propofol
same,neurotoxic response after waking up,mice [8],transient hemiplegia after waking up
same,persistent period for anesthesia compared to propofol,mice [8],much longer than those of propofol
CC(C)c1cccc(C(C)C)c1OC(=O)[C@H](F)CCN(C)C.Cl [J′],latent period for anesthesia compared to propofol,mice [8],almost equal to those of propofol
same,neurotoxic response after waking up,mice [8],no neurotoxic response was observed
same,persistent period for anesthesia compared to propofol,mice [8],almost equal to those of propofol
"CC(C)c1cccc(C(C)C)c1O [Propofol, reference compound]",TI Mouse,KM mice; [9],4.9
same,TI Mouse,KM mice; [10],3.8
same,ED50,KM mice; [9],7.9 mg/kg
same,ED50,KM mice; [10],11.3 mg/kg
same,Mouse LD50,KM mice; [9],38.4 mg/kg
same,Mouse LD50,KM mice; [10],42.9 mg/kg
same,TI Rat,SD rats; 3 mg/ml solution,5.5
same,TI Rat,SD rats; 6 mg/ml solution,4.9
same,ED50,SD rats; 3 mg/ml solution,3.91 mg/kg
same,ED50,SD rats; 6 mg/ml solution,3.5 mg/kg
same,Rat LD50,SD rats; 3 mg/ml solution,21.5 mg/kg
same,Rat LD50,SD rats; 6 mg/ml solution,17.4 mg/kg
same,Latent Period,Kunming mice; [11],8.4 ± 1.1 s
same,Persistent period,Kunming mice; [11],324.8 ± 98.9 s
same,Latent Period,Kunming mice; [18],8.4 ± 1.1 s
same,Persistent period,Kunming mice; [18],324.8 ± 98.9 s
same,Latent Period,mice [7]; [16],10.7 s
